Reference: patent US20210007350A1, “USE OF A FUNGICIDAL COMPOSITION AS TREATMENT FOR POWDERY MILDEW” (DESARROLLO AGRICOLA Y MINERO, S.A., priority 2017, published 2021)

System: powdery mildew (Sphaerotheca macularis)
Assay: Control of powdery mildew in greenhouse strawberry cultivation (field efficacy trial)
Type: in vivo
Settings: Myclobutanil 20 g/l, dose 30 ml/hl
Procedure: To reflect the efficacy of the invention presented in this description, comparative studies were performed in commercial conditions. Thus, commercial application of the present fungicidal composition is carried out by ground spraying with manual sprayers, motor pumps, or other similar means. The invention is further characterised by a specific use with a product application dose of between 0.05 l/hl and 0.5 l/hl, and preferably between 0.2 l/hl and 0.3 l/hl of the composition described herein.
The conditions of the application solution will be those normally used for the crops described. The following examples show the spraying case.
Example 1: Application of the Fungicidal Composition for the Control of Powdery Mildew (Sphaerotheca macularis) in Strawberries
The aim of the protocol was to evaluate the effect of the fungicidal composition applied in different doses for the control of powdery mildew (Sphaerotheca macularis) in greenhouse strawberry cultivation and compare its efficacy against that of a standard chemical phytosanitary product such as myclobutanil. Location: Almeria (Spain). Variety: Benicia.
Untreated control specimen
Myclobutanil 20 g/l, dose 30 ml/hl
Fungicidal composition, dose 0.2l/hl
Fungicidal composition, dose 0.3l/hl
Number of applications: 4
Use of solution: 1000 l/ha.
Parameters evaluated: Efficacy.
Efficacy data were taken at the following times.
T0: 0, before first application.
T1: 10 days after the first application and just before the second application.
T2: 9 days after the second application and just before the third application.
T3: 9 days after the third application and just before the fourth application
T4: 7 days after the fourth application.

With `CCCCC(C#N)(Cn1cncn1)c1ccc(Cl)cc1` (centres unmarked) [Myclobutanil, myclobutanil] the “efficacy % (T0)” value (T0: before first application, strawberry var. Benicia, greenhouse) was 0%, the “efficacy % (T1)” value (T1: 10 days after the first application) was 92.4% and the “efficacy % (T2)” value (T2: 9 days after the second application) was 97.0%. The “efficacy % (T3)” value (T3: 9 days after the third application) was 95.8% and the “efficacy % (T4)” value (T4: 7 days after the fourth application) was 98.3%.
